For 1 molecule, inhibition, Activity and K results are on record in ChEMBL document CHEMBL4339206, “Specific stabilization of DNA G-quadruplex structures with a chemically modified complementary probe” (Bioorg Med Chem, 2019).

Type in all cases: nucleic-acid assay
Experiment [1] has as its system Quadruplex DNA. In words: Binding affinity to HT4-2-Mut3 template G-quadruplex DNA (unknown origin) assessed as inhibition of polymerase progression at 2nt separation site at 20 to 100 uM using FAM-lablled primer P18 and dNTPs measured after 30 mins by phosphorimaging based taq polymerase stop assay.
Experiment [2] deals with Quadruplex DNA. In words: Binding affinity to HT4-2-Mut1 template G-quadruplex DNA (unknown origin) assessed as inhibition of polymerase progression at 2nt separation site at 20 to 100 uM using FAM-lablled primer P18 and dNTPs measured after 30 mins by phosphorimaging based taq polymerase stop assay.
The subject of experiment [3] is Quadruplex DNA. The experiment can be described thus: Binding affinity to HT4-2-Mut2 template G-quadruplex DNA (unknown origin) assessed as inhibition of polymerase progression at 2nt separation site at 20 to 100 uM using FAM-lablled primer P18 and dNTPs measured after 30 mins by phosphorimaging based taq polymerase stop assay.
In experiment [4] the test system is Quadruplex DNA. In words: Binding affinity to HT G-quadruplex DNA (unknown origin) assessed as stabilization of parallel G-quadruplex structure at 10 to 70 uM by CD spectroscopic method.
The subject of experiment [5] is Quadruplex DNA. In words: Binding affinity to HT4-2 template G-quadruplex DNA (unknown origin) assessed as inhibition of polymerase progression at 2nt separation site at 20 to 100 uM using FAM-lablled primer P18 and dNTPs measured after 30 mins by phosphorimaging based taq polymerase stop assay.
Experiment [6] deals with Quadruplex DNA. The experiment can be described thus: Binding affinity to HT4-2 template G-quadruplex DNA (unknown origin) assessed as primer extension stopped right before TTAGGG-repeating at 20 to 100 uM using FAM-lablled primer P18 and dNTPs measured after 30 mins in presence of marker 2 by phosphorimaging based taq polymerase stop assay.
The subject of experiment [7] is Quadruplex DNA. The experiment can be described thus: Binding affinity to HT G-quadruplex DNA (unknown origin) measured after 5 mins by UV-visible absorption titration method.
The subject of experiment [8] is Quadruplex DNA. In words: Binding affinity to HT4-2 template G-quadruplex DNA (unknown origin) at 55 degC.

Activity calls are given as the source filed them. The calls are words filed in the database; no cut-off is given here.

For `[N-]=[N+]=NCCCC[N+]1(CCOc2ccc(/N=N/c3ccc(OCC[N+]4(CCCCN=[N+]=[N-])CCCCC4)cc3)cc2)CCCCC1`, the inhibition entry in the experiment on Quadruplex DNA [1], in the experiment with Quadruplex DNA [2] and in the experiment with Quadruplex DNA [3] was “inactive” throughout. The result in the experiment with Quadruplex DNA [4] and in the experiment with Quadruplex DNA [6] was Active. Also, in the experiment on Quadruplex DNA [5], the inhibition result was “Active”. This molecule also registered a K in the experiment on Quadruplex DNA [7] of 2.1 ×10⁵ /M. Besides, the outcome with Quadruplex DNA [8] was inactive.
